This is an account of results in patent publication US6040330A, “Pharmaceutical formulations of taxanes” (BioNumerik Pharmaceuticals, Inc., priority 1999, dated 2000).

Converted amounts (≈) assume the structure as drawn.

Data set [1] can be described thus: maximum solubility in NMP. In kind it is physicochemical. The settings on record: organic solvent or mixture; in NMP (N-methylpyrrolidin-2-one).
The conditions of data set [2]: cited from earlier work.

For the compound `CC(=O)O[C@@]12CO[C@@H]1C[C@H](O)[C@@]1(C)C(=O)[C@H](O)C3=C(C)[C@@H](OC(=O)[C@H](O)[C@@H](NC(=O)OC(C)(C)C)c4ccccc4)C[C@@](O)([C@@H](OC(=O)c4ccccc4)[C@H]21)C3(C)C` [Docetaxel], the solubility (as a rule, the dissolved amount per volume that the medium holds) in data set [1] was approximately 40 mg/mL (≈ 49.5 mM). Moreover, the “solubility in water (in words)” value in data set [2] is on record as “very poorly soluble in water”.

Take `CC(=O)O[C@H]1C(=O)[C@@]2(C)[C@H]([C@H](OC(=O)c3ccccc3)[C@]3(O)C[C@H](OC(=O)[C@H](O)[C@@H](NC(=O)c4ccccc4)c4ccccc4)C(C)=C1C3(C)C)[C@]1(OC(C)=O)CO[C@@H]1C[C@@H]2O` [Paclitaxel]: the solubility in data set [1] is approximately 40 mg/mL (≈ 46.8 mM). Moreover, the “solubility in water (in words)” value in data set [2] is listed as “very poorly water soluble”. Further, the water solubility result in data set [2] (in water) is listed as “less than 10 μg/mL”.
